Experimental data reported in patent US20090258052A1, “COMPOUNDS AND METHODS FOR ALTERING BONE GROWTH” (OsteoGeneX Inc., priority 2008, published 2009).

Assays:
C57BL/6 mice = assay: Bone growth study in mice, daily i.p. for 30 days; serum osteocalcin by EIA Elisa; assay type: in vivo; conditions: four month old male C57BL/6 mice
Protocol: Four month old male C57BL/6 mice were treated daily with saline vehicle or sclerostin inhibitors at low, mid, or high doses (via i.p) for 30 days. Study endpoints included a biochemical marker of bone formation, osteocalcin measured by EIA Elisa, and measurement of trabecular bone volume by mico-CT analysis on both the proximal tibia and L5 vertebra.

SOST (Sclerostin) = assay: Assay for identification of SOST antagonists promoting bone growth (J Bone Miner Res 2006, 21(11), 1738-1749)
From the text: Compounds useful in the methods of the present invention can be identified via a variety of methods known to one of skill in the art. Several exemplary methods for identifying such antagonists are described herein, including cell-based and in vitro techniques (Journal of Bone and Mineral Research 2006, 21(11), 1738-1749). A general method of identifying SOST antagonists involves evaluating the effects of antagonist candidates on bone formation under controlled conditions. Preferably bone formation is determined using micro-CT techniques on live animals. Preferred animals include rodents, more preferred are primates. Femur, tibia and vertebrae bones are particularly useful subjects for such study.
Briefly, the test animal is treated with a predetermined dose of a SOST antagonist candidate. A control animal is treated with a control solution, preferably a non-irritating buffer solution or other carrier.
Once the dosing schedule has been completed, both test and control animals are examined to determine the quantity of bone formation present. This can be accomplished by any suitable method, but is preferably performed on live animals to analyze the bone mineral content. Methods for micro-CT examination of bones in animals are well known in the art. […] Where necessary, levels of bone formation can be calculated by determining the volume of bone formation present in each animal. […]

## O=c1[nH]nc(SCCO)c(=O)[nH]1 [OGX-21]
C57BL/6 mice; 10 mg/kg (A)
  percent increase in serum osteocalcin over baseline: 2%
C57BL/6 mice; 20 mg/kg (B)
  percent increase in serum osteocalcin over baseline: 28%
C57BL/6 mice; 30 mg/kg (C)
  percent increase in serum osteocalcin over baseline: 15%
SOST (Sclerostin); FIG. 1
  modulation of the Wnt pathway: modulating the Wnt pathway
SOST (Sclerostin); identification assay
  promotion of bone growth: promoting bone growth
